Assay type in all cases: in vivo
The test system of one test is panel of trained tasters. Put plainly: Taste evaluation in water. The method, then:
A one percent cut of each compound of Examples 1-13 was prepared first. The hydrochloride salts were cut directly into water, while the free base examples were cut into ethanol. Next, 100 ml of a 1 ppm, 10 ppm and 20 ppm solution were prepared. The 1 ppm standards were prepared by addition of 0.0126 ml (cut in ethanol) or 0.01 ml (cut in water) to an amber bottle followed by dilution to 100 g total sample weight using water. The 10 and 20 ppm solutions were prepared similarly, but using 0.126 ml ethanol/0.1 ml water or 0.252 ml ethanol/0.2 ml water of the 1% cuts respectively. Next, the samples were evaluated by a panel of trained tasters.

Test [1] relates to bench-top tasting panel. Put plainly: Umami evaluation in noodle seasoning broth. The settings on record: Example 1 0.0001% by weight; for umami strength ranking: MSG 0.1%, 11 panelists. Here is the method: (§1) Umami evaluations were done in dry noodle seasoning, chicken broth, retorted chicken broth, cheese sauce and salted potato chip applications. Each application was prepared using MSG, the experimental umami tastant and a blank which contained neither MSG nor the experimental umami tastant. Next, using a bench-top tasting panel (consisting of 7 to 14 panelists), panelists were asked to record the sensory attribute differences between the control (blank), the MSG application and the application containing the experimental umami tastant. These sensory attributes include umami, saltiness, bitterness, off-notes, mouth feel attribute, lingering attribute and flavor profile differences. [table] Turmeric was plated on salt and palm fat and blended well. Next, the remaining ingredients were added and mixed until well blended. A concentration of 1.5% of the resulting mixture in hot water generated the noodle seasoning broth. The following three samples were tasted and compared. [table]

Test [2] has as its system bench-top tasting panel. Kind of test: Umami evaluation in chicken broth. The settings on record: Example 1 0.0002% by weight; for umami strength ranking: MSG 0.1%, 11 panelists. Here is the method: as §1, with “[table]” left out, “chicken” for “palm”, “2.5%” for “1.5%”, “water (82° C. (180° F.))” for “water”, “broth.” for “broth. The following three samples were tasted and compared. [table]”

In test [3] the test system is bench-top tasting panel. Put plainly: Umami evaluation in retorted chicken broth (Example 17). The settings on record: Example 1 0.0002% by weight. The method, then: Umami evaluations were done in dry noodle seasoning, chicken broth, retorted chicken broth, cheese sauce and salted potato chip applications. Each application was prepared using MSG, the experimental umami tastant and a blank which contained neither MSG nor the experimental umami tastant. Next, using a bench-top tasting panel (consisting of 7 to 14 panelists), panelists were asked to record the sensory attribute differences between the control (blank), the MSG application and the application containing the experimental umami tastant. These sensory attributes include umami, saltiness, bitterness, off-notes, mouth feel attribute, lingering attribute and flavor profile differences. The chicken broth generated in Example 16 was transferred to a can and sealed. Prior to sealing one batch was treated with the compound of Example 1 (0.0002% by weight) and the other batch was canned without the ingredient generating a blank control sample. After sealing the cans, they were heated to 121° C. (250° F.) (under pressure) for 25 minutes, cooled to room temperature and then stored in the refrigerator for two weeks. Prior to tasting, the cans were opened and reheated to 65.5° C. (150° F.).

Test [4] relates to bench-top tasting panel. Put plainly: Umami evaluation in cheese sauce. The settings on record: Example 1 0.00025% by weight; for umami strength ranking: MSG 0.1%, 14 panelists. The method, then: as §1, with “differences. […] Annatto” for “differences. [table] Turmeric”, “on a mixture of salt, citric acid” for “on salt”, “and lactic acid” for “and palm fat”, “blended.” for “blended. A concentration of 1.5% of the resulting mixture in hot water generated the noodle seasoning broth. The following three samples were tasted and compared. [table]”

Test [5] has as its system bench-top tasting panel. Kind of test: Umami evaluation on salted potato chips (Example 19). The settings on record: 1% salted potato chips; for umami strength ranking: 14 panelists. Here is the method:
as §1, with “differences.” for “differences. [table] Turmeric was plated on salt and palm fat and blended well. Next, the remaining ingredients were added and mixed until well blended. A concentration of 1.5% of the resulting mixture in hot water generated the noodle seasoning broth. The following three samples were tasted and compared. [table]”
One percent salt was added to a standard unsalted potato chip.

Test [6] deals with bench-top tasting panel. Put plainly: Umami evaluation in retorted chicken broth (Example 20). The settings on record: MSG 0.20%, Example 3 4 ppm, Example 13 3 ppm, Example 10 4 ppm, Example 9 3 ppm, 9 panelists. Here is the method: as §1, with “differences.” for “differences. [table] Turmeric was plated on salt and palm fat and blended well. Next, the remaining ingredients were added and mixed until well blended. A concentration of 1.5% of the resulting mixture in hot water generated the noodle seasoning broth. The following three samples were tasted and compared. [table]”
The procedure for the preparation of the retorted chicken broth is the same as in example 16. Compounds from Examples 3, 9, 10 and 13 were spiked individually into the chicken broth generating six samples, as described below.

The subject of test [7] is bench-top tasting panel. Put plainly: Bain marie (hot water bath) test with chicken broth. The settings on record: hot water bath 150° F. for 4 hours, MSG 0.20%, Example 3 3 ppm, Example 13 2 ppm (table), Example 10 3 ppm, Example 9 2 ppm, 7 panelists. The method, then: as §1, with “differences.” for “differences. [table] Turmeric was plated on salt and palm fat and blended well. Next, the remaining ingredients were added and mixed until well blended. A concentration of 1.5% of the resulting mixture in hot water generated the noodle seasoning broth. The following three samples were tasted and compared. [table]”
Chicken broth was prepared as previously described in example 15. Compounds from Examples 3, 9, 10 and 13 were added to the chicken broth in the concentrations described below and placed in a hot water bath (150° F.) for 4 hours prior to taste evaluation.

In test [8] the test system is bench-top tasting panel. Kind of test: Umami evaluation on salted potato chips (Example 22). The settings on record: 1% salted potato chips; MSG 0.2%, Example 3 10 ppm, Example 13 10 ppm, Example 10 6 ppm, Example 9 10 ppm; 9 panelists. The method, then: as §1, with “differences.” for “differences. [table] Turmeric was plated on salt and palm fat and blended well. Next, the remaining ingredients were added and mixed until well blended. A concentration of 1.5% of the resulting mixture in hot water generated the noodle seasoning broth. The following three samples were tasted and compared. [table]”
The potato chips were prepared as previously described in example 19 and spiked with compounds from Examples 3, 9, 10 and 13 as described below.

Setting [9] is: MSG 0.2%, Example 1 3 ppm (0.0003% by weight).

The structures appear in SMILES notation.

With `c1ccc(SCCc2ccccn2)cc1` [Example 1, 2-(2-(PHENYLTHIO)ETHYL)PYRIDINE], the aroma result with panel of trained tasters (1 ppm in water) is “green”; in the test on panel of trained tasters (10 ppm in water), “green”; in the test on panel of trained tasters (20 ppm in water), “Green, tomato, bell”. In addition, the taste entry in the test with panel of trained tasters (1 ppm in water) is “weak to moderate umami”; in the test with panel of trained tasters (10 ppm in water), “moderate umami, very weak: bitter, very weak”; in the test with panel of trained tasters (20 ppm in water) it was “strong umami, very weak bitter, weak metallic”. Also, the “attribute noted by some panelists” value in the test with bench-top tasting panel [1] is “green pepper attribute”; with bench-top tasting panel [2], “green pepper/chili off-note attribute”; in the test on bench-top tasting panel [4] it was “green pepper attribute”; with bench-top tasting panel [5] (Example 1 containing samples (1 ppm and 3 ppm)), “peppery attribute”. The “Number of panelists who noted green pepper offnote” value with bench-top tasting panel [1] (of 11 panelists) turned out to be 2; with bench-top tasting panel [2] (of 11 panelists) it was 3; with bench-top tasting panel [3] (retorted chicken broth, of 10 panelists), 4; with bench-top tasting panel [4] (of 14 panelists) it was 4; in the test with bench-top tasting panel [5] (Example 1 samples, of 14 panelists), 2. Further, the umami strength ranking entry with bench-top tasting panel [1] is reported as “MSG>Example 1>Blank Noodle Seasoning”; in the test on bench-top tasting panel [2], “MSG>Example 1>Blank Chicken Broth”; with bench-top tasting panel [4], “MSG>Example 1>Blank Cheese Sauce”; in the test with bench-top tasting panel [5] (Example 1 1 ppm (0.0001% by weight)) it was “MSG>3 ppm Example 1>1 ppm Example 1>Blank Salted Chips”; in the test with bench-top tasting panel [5] (setting [9]) it was “MSG>3 ppm Example 1>1 ppm Example 1>Blank Salted Chips”. The umami versus control entry in the test on bench-top tasting panel [3] (retorted chicken broth (121° C., 25 minutes, stored two weeks), 10 panelists) was “more umami than the control”. The off-notes result with bench-top tasting panel [3] (retorted chicken broth) is given as “pepper off-notes”.

Consider `N[C@@H](CCC(=O)O)C(=O)[O-].[Na+]` [MSG, monosodium glutamate, reference compound], for which the umami strength ranking entry in the test on bench-top tasting panel [1] is “MSG>Example 1>Blank Noodle Seasoning”; in the test with bench-top tasting panel [2], “MSG>Example 1>Blank Chicken Broth”; in the test with bench-top tasting panel [4] it was “MSG>Example 1>Blank Cheese Sauce”; with bench-top tasting panel [5] (setting [9]) it was “MSG>3 ppm Example 1>1 ppm Example 1>Blank Salted Chips”; in the test on bench-top tasting panel [6], “MSG>3 ppm example 9>3 ppm Example 13>4 ppm Example 3>Blank retorted chicken broth>4 ppm Example 10”; with bench-top tasting panel [7], “MSG>2 ppm example 9>3 ppm Example 10=4 ppm Example 13>Blank chicken broth>3 ppm Example 3”. For the same compound, the umami strength ranking in the test on bench-top tasting panel [8] is listed as 10 ppm Example 3>10 ppm Example 9>MSG>10 ppm Example 13>blank>6 ppm Example 10.

The record behind these values is patent US10178875B2, “Methods of modifying or imparting taste using organic compounds” (Givaudan, S.A., priority 2013, dated 2019).
